Reference: patent publication US20220380414A1, “COMPOSITIONS AND METHODS BASED ON HIV GP120 MUTANTS” (CENTRE H[…] L'UNIVERSITÉ DE MONTRÉAL, priority 2019, published 2022)
“Also recorded” adds a separate entry of the source.

Assays:
[1] = system: Recombinant HIV-1 strains bearing wild-type or mutant CRF01_AE Envs (92TH023 and CM244 isolates); assay: Neutralization of recombinant luciferase HIV-1 bearing wild-type or mutant CRF01_AE Envs, infection of Cf2Th-CD4/CCR5 cells; assay type: cell-based
Protocol: J Virol 74:10690-10698). Infectivity at each dilution of sCD4 or CD4mc tested is shown as the percentage of infection without sCD4 or CD4mc for each particular mutant. Quadruplicate samples were analyzed in each experiment. Data shown are the means of results obtained in at least 3 independent experiments. The error bars represent the standard deviations. […]
FIGS. 6A-F show the effect of Phe43 cavity and layer mutations (LM) on neutralization by small molecules known to stabilize Env State 1. Recombinant HIV-1 strains expressing luciferase and bearing wild-type or mutant CRF01_AE Envs (92TH023 and CM244 isolates) were normalized by reverse transcriptase activity. Normalized amounts of viruses were incubated with serial dilutions of BMS-626529 (Nowicka-Sans B et al. 2012. Antimicrob Agents Chemother 56:3498-3507; Pancera M et al., 2017. Nat Chem Biol 13:1115-1122) (FIG. 6A, B) or 484 (16) (FIG. 6C) at 37° C. for 1 h prior to infection of Cf2Th-CD4/CCR5 cells. Infectivity at each dilution of the compound tested is shown as the percentage of infection without the compound for each particular mutant. Quadruplicate samples were analyzed in each experiment. Data shown are the means of results obtained in at least 3 independent experiments. The error bars represent the standard deviations. (FIG. 6E, F) Cell-surface staining of 293T cells transfected with different CRF01_AE Env expressors (92TH023 and CM244 isolates) WT or their mutated counterparts together with a GFP expressor (in order to identify positively transfected cells) using sCD4. Binding of sCD4 in presence of BMS-626529 (50 μM) or not (DMSO) was detected with the anti-CD4 OKT4 mAb. Shown are the mean fluorescence intensities (MFI) obtained in presence of BNM-III-170 normalized to the MFI in absence of BNM-III-170 (DMSO) from the transfected (GFP+) population for staining obtained in at least 3 independent experiments. All MFI were normalized to 2G12 MFI for each Env mutants. Decrease in sCD4 signal indicates competition with BMS-626529 (i.e., this represents an indirect measure of BMS-626529 interaction with each Env mutant). […] Error bars indicate mean±SEM. Statistical significance was tested using an unpaired t-test (** p<0.01, ns: non significant). […]
CD4mc were used as probes to evaluate the potential impact of the LM residues on shaping the Phe43 cavity. […] In contrast, no or very little effect was measured in recombinant viruses with mutations in the Phe43 cavity only or in the inner domain layer only.

[2] = system: CRF01_AE Env (92TH023 and CM244 isolates) WT or mutated; assay: Cell-surface staining of HEK293T cells transfected with CRF01_AE Env expressors, Env ligand binding with or without compound; assay type: cell-based, HIV-1
Protocol: Cell-surface staining of HEK293T cells transfected with different CRF01_AE Env expressors (92TH023 and CM244 isolates) WT or their mutated counterparts together with a GFP expressor (in order to identify positively transfected cells) using a panel of Env ligands. (FIG. 4A, B) sCD4 binding in presence of BNM-III-170 (50 μM) or not (DMSO) was detected with the anti-CD4 OKT4 mAb. Binding of broadly-neutralizing antibodies (bNAbs) that preferentially recognize state 1 Env (Lu M et al. 2019. Nature 568, pages 415-419; Munro J B et al., 2014. Science 346:759-763) (FIG. 4B, E) and non-neutralizing antibodies (nnAbs) that preferentially recognize states 2/2A/3 (Alsahafi N et al., 2019. Cell Host Microbe 25:578-587, Prevost J et al., 2018. Virology 515:38-45) (FIG. 4C, F) was also performed in presence of BNM-III-170 (50 μM) or not (DMSO). Shown are the mean fluorescence intensities (MFI) obtained in presence of BNM-III-170 normalized to the MFI in absence of BNM-111-170 (DMSO) from the transfected (GFP+) population for staining obtained in at least 3 independent experiments. All MFI were normalized to MFI signals obtained with the anti-gp120 outer domain 2G12. Decrease in sCD4 signal indicates competition with BNM-III-170 (i.e., this represents an indirect measure of BNM-III-170 interaction with each Env mutant) (FIGS. 4A and D). […] Increase in nnAbs signal is consistent with the capacity of BNM-III-170 to push Env to downstream “open” states 2/3 conformations (C and F). […] Error bars indicate mean±SEM. Statistical significance was tested using an unpaired t-test (* p<0.05, ** p<0.01, *** p<0.001, **** p<0.0001, ns: non significant).
FIGS. 6A-F show the effect of Phe43 cavity and layer mutations (LM) on neutralization by small molecules known to stabilize Env State 1. Recombinant HIV-1 strains expressing luciferase and bearing wild-type or mutant CRF01_AE Envs (92TH023 and CM244 isolates) were normalized by reverse transcriptase activity. Normalized amounts of viruses were incubated with serial dilutions of BMS-626529 (Nowicka-Sans B et al. 2012. Antimicrob Agents Chemother 56:3498-3507; Pancera M et al., 2017. Nat Chem Biol 13:1115-1122) (FIG. 6A, B) or 484 (16) (FIG. 6C) at 37° C. for 1 h prior to infection of Cf2Th-CD4/CCR5 cells. Infectivity at each dilution of the compound tested is shown as the percentage of infection without the compound for each particular mutant. Quadruplicate samples were analyzed in each experiment. Data shown are the means of results obtained in at least 3 independent experiments. The error bars represent the standard deviations. (FIG. 6E, F) Cell-surface staining of 293T cells transfected with different CRF01_AE Env expressors (92TH023 and CM244 isolates) WT or their mutated counterparts together with a GFP expressor (in order to identify positively transfected cells) using sCD4. Binding of sCD4 in presence of BMS-626529 (50 μM) or not (DMSO) was detected with the anti-CD4 OKT4 mAb. Shown are the mean fluorescence intensities (MFI) obtained in presence of BNM-III-170 normalized to the MFI in absence of BNM-III-170 (DMSO) from the transfected (GFP+) population for staining obtained in at least 3 independent experiments. All MFI were normalized to 2G12 MFI for each Env mutants. Decrease in sCD4 signal indicates competition with BMS-626529 (i.e., this represents an indirect measure of BMS-626529 interaction with each Env mutant). […] Error bars indicate mean±SEM. Statistical significance was tested using an unpaired t-test (** p<0.01, ns: non significant).
To gain a better understanding of the impact that the LM and 375 changes have on Env conformation, an assay to measure sCD4 and BNM-III-170 capacity to interact with Env was developed. Briefly, CD4-negative cells were transfected with Env variants. Two days post-transfection, BNM-III-170 or the vehicle (DMSO) was added to Env-expressing cells. […]

[3] = system: CRF01_AE Env from a transmitted founder strain (40100 isolate) with LM+HS mutations; assay: Cell-surface staining of primary CD4+ T cells infected with SHIV expressing CRF01_AE Env, anti-Env mAb binding with compound; assay type: cell-based
Protocol: Cell-surface staining of primary CD4^+ T cells infected with SHIV expressing a CRF01_AE Env from a transmitted founder strain (40100 isolate) (Chenine A L et al., 2018. J Acquir Immune Defic Syndr 78:348-355; Kijak G H et al., 2017. PLoS Pathog 13:e1006510) mutated to harbor the LM+HS mutations using a panel of Env ligands. Binding of anti-Env mAbs preferring State 1 (PGT128, PGT145, PG9, 10-1074) (FIG. 7A-D) or preferring State 2/3 (19b, 17b) (FIG. 7E-F) was performed in presence of DMSO or increasing amount of BNM-III-170 (stabilises States 2/3 (Munro J B et al., 2014. Science 346:759-763; Alsahafi N et al., 2019. Cell Host Microbe 25:578-587: e575; Herschhorn A, et al. 2017. Nat Commun 8:1049) or BMS-626529 (stabilizes State 1, (Lu M et al. 2019. Nature 568, pages 415-419; Munro J B et al., 2014. Science 346:759-763)). Shown are the mean fluorescence intensities (MFI) obtained in presence of the compounds normalized to the MFI in absence of any compound (DMSO) from the infected (p27+) population. All MFI were normalized to 2G12 MFI for each mAb. State 1 and State 2/3 Abs were grouped in FIG. 7G and FIG. 7H, respectively.

[4] = LM+HS or LM+HT mutants of CRF01_AE Envs versus wild-type
[5] = LM+HS or LM+HT mutants, BNM-III-170 50 μM vs DMSO

Row | Structure (SMILES) | sensitivity to neutralization [1, 4] | Env conformation adopted in presence of ligand ([2]; CRF01_AE gp160 with the same six mutations combined with H375S) | sCD4 signal in presence of compound (competition, indirect measure of interaction with Env) ([2]; LM-HS mutant, BMS-626529 50 μM vs DMSO, detected with anti-CD4 OKT4 mAb) | Env recognition by bNAbs preferentially binding state 1 in presence of compound ([3]; increasing amount of BMS-626529 vs DMSO) | susceptibility to neutralization ([1]; H375S combined with LM mutations (LM+HS), both CRF01_AE strains) | neutralization of pseudotypes ([1]; H375S mutant of both CRF01_AE Envs) | sensitivity to neutralization ([1]; different combinations of single or multiple layer mutations together with H375S) | neutralization of viral particles ([1]; wild-type CRF01_AE Envs (92TH023 and CM244)) | Env conformation adopted in presence of ligand ([2]; CRF01_AE gp160 with H61Y, Q105H, V108I, N474D, I475M, K476R combined with H375T) | compound-induced Env conformational changes (open conformation) [2, 5] | recognition by state 1 preferring bNAbs in presence of compound [2, 5] | sCD4 and nnAbs binding (open state 2/3 preferring) in presence of compound [2, 5] | Env recognition by nnAbs preferentially binding states 2/3 in presence of compound ([3]; increasing amount of BNM-III-170 vs DMSO)
1 | COc1cnc(-n2cnc(C)n2)c2[nH]cc(C(=O)C(=O)N3CCN(C(=O)c4ccccc4)CC3)c12 [BMS-626529, temsavir] | sensitized | tend to adopt a state 1 configuration | statistically significant decrease | enhanced Env recognition |  |  |  |  |  |  |  |  | 
2 | CNCc1ccc2c(c1)C[C@H](CN=C(N)N)[C@H]2NC(=O)C(=O)Nc1ccc(Cl)c(F)c1.O=C(O)C(F)(F)F.O=C(O)C(F)(F)F [BNM-III-170] | more sensitive to neutralization |  |  |  | dramatically enhanced the susceptibility | did not restore neutralization sensibility | did not restore sensitivity | resistant to neutralization | tend to adopt an open state 2/3 configuration | superior; also recorded: more susceptible | decrease in recognition | increase in sCD4 and nnAbs binding | enhanced Env recognition
